Test results from patent publication US20250197658A1, “ANTIOXIDANT STABILIZERS FOR DIRECT FABRICATION OF ORTHODONTIC APPLIANCES” (Align Technology, Inc., priority 2023, published 2025).

Test: Photoinitiator stability: concentrations in recovered resin composition after printing cycles
Assay type: physicochemical
Details: for change of concentration in recovered resin composition: with increasing printing cycles

Compound	concentration in recovered resin composition (1 printing cycle) [wt %]	concentration in recovered resin composition (2 printing cycles) [wt %]	concentration in recovered resin composition (4 printing cycles) [wt %]	concentration in recovered resin composition (6 printing cycles) [wt %]	change of concentration in recovered resin composition
Cc1cc(C)c(C(=O)P(=O)(C(=O)c2c(C)cc(C)cc2C)c2ccccc2)c(C)c1 [BAPO, phenylbis(2,4,6-trimethylbenzoyl) phosphine oxide]	0.98	1	0.98	0.99	remained constant
Vitamin E	0.0077	0.0063	0.0043	0.0026	decreased
